Data published in PubChem BioAssay (NCI).
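A five-concentration, 48-hour dose response in 96-well plates underlies each endpoint, interpolated linearly between surrounding concentrations. GI50 = concentration required for 50% inhibition of growth. TGI: concentration producing complete growth inhibition.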

What was measured:
Experiment in all cases: NCI tumour cell line growth inhibition, 48 h
TK-10 renal = test system: TK-10 renal
SF-539 CNS = test system: SF-539 CNS
CCRF-CEM leukemia = test system: CCRF-CEM leukemia
SN12C renal = test system: SN12C renal
NCI-H460 lung = test system: NCI-H460 lung
SK-MEL-2 melanoma = test system: SK-MEL-2 melanoma
SR leukemia = test system: SR leukemia
NCI-H226 lung = test system: NCI-H226 lung
HCT-15 colon = test system: HCT-15 colon
OVCAR-8 ovarian = test system: OVCAR-8 ovarian
HS 578T breast = test system: HS 578T breast
IGROV1 ovarian = test system: IGROV1 ovarian
SW-620 colon = test system: SW-620 colon
MDA-MB-435 = test system: MDA-MB-435
HOP-92 NSCLC = test system: HOP-92 NSCLC
RPMI-8226 leukemia = test system: RPMI-8226 leukemia
KM12 colon = test system: KM12 colon
SNB-19 CNS = test system: SNB-19 CNS
SK-MEL-5 melanoma = test system: SK-MEL-5 melanoma
HOP-62 NSCLC = test system: HOP-62 NSCLC
LOX IMVI melanoma = test system: LOX IMVI melanoma
NCI-H23 lung = test system: NCI-H23 lung
SK-OV-3 ovarian = test system: SK-OV-3 ovarian
NCI/ADR-RES ovarian = test system: NCI/ADR-RES ovarian
HCC-2998 colon = test system: HCC-2998 colon
BT-549 breast = test system: BT-549 breast
ACHN renal = test system: ACHN renal
786-0 renal = test system: 786-0 renal
HT29 colon = test system: HT29 colon
MALME-3M melanoma = test system: MALME-3M melanoma
UO-31 renal = test system: UO-31 renal
U251 CNS = test system: U251 CNS
SNB-75 CNS = test system: SNB-75 CNS
SF-295 CNS = test system: SF-295 CNS
OVCAR-4 ovarian = test system: OVCAR-4 ovarian
A549 NSCLC = test system: A549 NSCLC
A498 renal = test system: A498 renal
M14 melanoma = test system: M14 melanoma
UACC-62 melanoma = test system: UACC-62 melanoma
PC-3 prostate = test system: PC-3 prostate
MCF7 breast = test system: MCF7 breast
DU-145 prostate = test system: DU-145 prostate
RXF 393 renal = test system: RXF 393 renal
SF-268 CNS = test system: SF-268 CNS
MOLT-4 leukemia = test system: MOLT-4 leukemia
CAKI-1 renal = test system: CAKI-1 renal
HCT-116 colon = test system: HCT-116 colon
OVCAR-5 ovarian = test system: OVCAR-5 ovarian
T-47D breast = test system: T-47D breast
MDA-MB-231 breast = test system: MDA-MB-231 breast
NCI-H522 lung = test system: NCI-H522 lung
K-562 leukemia = test system: K-562 leukemia
SK-MEL-28 melanoma = test system: SK-MEL-28 melanoma
COLO 205 colon = test system: COLO 205 colon
UACC-257 melanoma = test system: UACC-257 melanoma

For CCCc1ccc(S(=O)(=O)N[C@H]2CC[C@H]3[C@@H]4CCc5cc(O)ccc5[C@H]4CC[C@]23C)cc1, the GI50 (TK-10 renal) was 3.8 µM, the TGI (TK-10 renal) was 13.7 µM and the GI50 (SF-539 CNS) was 2.12 µM. The TGI (SF-539 CNS) was 4.46 µM, the GI50 (CCRF-CEM leukemia) was 2.72 µM and the TGI (CCRF-CEM leukemia) was 12 µM. The GI50 (SN12C renal) was 1.75 µM, the TGI (SN12C renal) was 3.44 µM and the GI50 (NCI-H460 lung) was 2.54 µM. It also gave a TGI (NCI-H460 lung) of 6.41 µM, a GI50 (SK-MEL-2 melanoma) of 2.72 µM and a TGI (SK-MEL-2 melanoma) of 7.12 µM. It also gave a GI50 (SR leukemia) of 2.53 µM, a TGI (SR leukemia) of 8.06 µM and a GI50 (NCI-H226 lung) of 1.57 µM. The TGI (NCI-H226 lung) was 3.15 µM, the GI50 (HCT-15 colon) was 2.26 µM and the TGI (HCT-15 colon) was 6.45 µM. It also gave a GI50 (OVCAR-8 ovarian) of 3.29 µM, a TGI (OVCAR-8 ovarian) of 13.1 µM and a GI50 (HS 578T breast) of 3.33 µM. The TGI (HS 578T breast) was 12.9 µM, the GI50 (IGROV1 ovarian) was 3.76 µM and the TGI (IGROV1 ovarian) was 14.3 µM. The GI50 (SW-620 colon) was 3.6 µM, the TGI (SW-620 colon) was 14.2 µM and the GI50 (MDA-MB-435) was 3.13 µM. It also gave a TGI (MDA-MB-435) of 11.1 µM, a GI50 (HOP-92 NSCLC) of 1.91 µM and a TGI (HOP-92 NSCLC) of 5.65 µM. The GI50 (RPMI-8226 leukemia) was 2.9 µM, the TGI (RPMI-8226 leukemia) was 10 µM and the GI50 (KM12 colon) was 2.68 µM. The TGI (KM12 colon) was 7.81 µM, the GI50 (SNB-19 CNS) was 4.2 µM and the TGI (SNB-19 CNS) was 15.9 µM. It also gave a GI50 (SK-MEL-5 melanoma) of 1.63 µM, a TGI (SK-MEL-5 melanoma) of 3.01 µM and a GI50 (HOP-62 NSCLC) of 4.65 µM. For the same compound, the TGI (HOP-62 NSCLC) was 15.8 µM, the GI50 (LOX IMVI melanoma) was 1.72 µM and the TGI (LOX IMVI melanoma) was 3.17 µM. The GI50 (NCI-H23 lung) was 3.31 µM, the TGI (NCI-H23 lung) was 14.6 µM and the GI50 (SK-OV-3 ovarian) was 3.65 µM. The TGI (SK-OV-3 ovarian) was 12.4 µM, the GI50 (NCI/ADR-RES ovarian) was 2.75 µM and the TGI (NCI/ADR-RES ovarian) was 10.6 µM. The GI50 (HCC-2998 colon) was 4 µM, the TGI (HCC-2998 colon) was 13.7 µM and the GI50 (BT-549 breast) was 2.47 µM. It also gave a TGI (BT-549 breast) of 5.89 µM, a GI50 (ACHN renal) of 2.57 µM and a TGI (ACHN renal) of 8.06 µM. The GI50 (786-0 renal) was 3.02 µM, the TGI (786-0 renal) was 9.16 µM and the GI50 (HT29 colon) was 3.19 µM. It also gave a TGI (HT29 colon) of 10.2 µM, a GI50 (MALME-3M melanoma) of 2.82 µM and a TGI (MALME-3M melanoma) of 8.07 µM. It also gave a GI50 (UO-31 renal) of 2.23 µM, a TGI (UO-31 renal) of 8.78 µM and a GI50 (U251 CNS) of 1.95 µM. It also gave a TGI (U251 CNS) of 4.25 µM, a GI50 (SNB-75 CNS) of 2.23 µM and a TGI (SNB-75 CNS) of 9.98 µM. For the same compound, the GI50 (SF-295 CNS) was 3.06 µM, the TGI (SF-295 CNS) was 10.9 µM and the GI50 (OVCAR-4 ovarian) was 2.23 µM. For the same compound, the TGI (OVCAR-4 ovarian) was 9.57 µM, the GI50 (A549 NSCLC) was 3.22 µM and the TGI (A549 NSCLC) was 12.8 µM. It also gave a GI50 (A498 renal) of 1.78 µM, a TGI (A498 renal) of 5.45 µM and a GI50 (M14 melanoma) of 3.21 µM. The TGI (M14 melanoma) was 10.3 µM, the GI50 (UACC-62 melanoma) was 1.92 µM and the TGI (UACC-62 melanoma) was 4.37 µM. For the same compound, the GI50 (PC-3 prostate) was 2.52 µM, the TGI (PC-3 prostate) was 11.7 µM and the GI50 (MCF7 breast) was 2.66 µM. It also gave a TGI (MCF7 breast) of 7.29 µM, a GI50 (DU-145 prostate) of 4.04 µM and a TGI (DU-145 prostate) of 14 µM. It also gave a GI50 (RXF 393 renal) of 1.67 µM, a TGI (RXF 393 renal) of 4.42 µM and a GI50 (SF-268 CNS) of 3.44 µM. It also gave a TGI (SF-268 CNS) of 13.4 µM, a GI50 (MOLT-4 leukemia) of 2.36 µM and a TGI (MOLT-4 leukemia) of 9.18 µM. For the same compound, the GI50 (CAKI-1 renal) was 3.45 µM, the TGI (CAKI-1 renal) was 11.9 µM and the GI50 (HCT-116 colon) was 1.78 µM. It also gave a TGI (HCT-116 colon) of 3.27 µM, a GI50 (OVCAR-5 ovarian) of 2.06 µM and a TGI (OVCAR-5 ovarian) of 4.44 µM. It also gave a GI50 (T-47D breast) of 3.54 µM, a TGI (T-47D breast) of 10.8 µM and a GI50 (MDA-MB-231 breast) of 2.29 µM. The TGI (MDA-MB-231 breast) was 6.21 µM, the GI50 (NCI-H522 lung) was 2.32 µM and the TGI (NCI-H522 lung) was 9.09 µM. The GI50 (K-562 leukemia) was 3.06 µM, the TGI (K-562 leukemia) was 12 µM and the GI50 (SK-MEL-28 melanoma) was 2.45 µM. It also gave a TGI (SK-MEL-28 melanoma) of 6.33 µM, a GI50 (COLO 205 colon) of 1.84 µM and a TGI (COLO 205 colon) of 3.28 µM. It also gave a GI50 (UACC-257 melanoma) of 3.83 µM and a TGI (UACC-257 melanoma) of 15.7 µM.
